In one data set the test system is plasmid pXL3031. The data set can be described thus: ethidium bromide fluorescence test of nucleic acid compaction. The class given is binding. To be noted: conditions identical to the DT-3TU mixtures, 150 mM sodium chloride. The protocol: In the text which follows, the nucleic acid used was the plasmid pXL3031 described in the publication Gene Therapy (1999) 6, pp. 1482-1488, which contained the luc gene encoding luciferase under the control of the cytomegalovirus CMV E/P promoter. This plasmid is represented in FIG. 7. Its size is 3671 bp. The plasmid solution used was diluted to 1.262 g/l in water for injection.
The nucleic acid was brought into contact with increasing quantities of DT-3TU (12), by equivolumetric mixing of lipid solutions of various titers in the solutions of nucleic acid. Samples of 800 μl of nucleic acid complexes with a concentration of 0.01 μg/ml were thus prepared in a 150 mM sodium chloride solution with increasing quantities of DT-3TU (12).
In the same manner, a control was prepared by bringing the nucleic acid into contact with increasing quantities of EPC (see FIG. 1) or of DPPC (see FIG. 2), by equivolumetric mixing of lipid solutions of various titers in the solutions of nucleic acid. Samples of 800 μl of nucleic acid complexes with a concentration of […] were thus prepared in a 150 mM sodium chloride solution with increasing quantities of EPC or of DPPC (FIGS. 1 and 2 respectively).
The ethidium bromide fluorescence was measured over time (measured at 20° C.) using a FluoroMax-2 (Jobin Yvon-Spex) with excitation and emission wavelengths of 260 nm and 590 nm respectively. […]

For data set [1], the system named is tibial and cranial muscles. The data set can be described thus: in vivo muscle transfection, luciferase expression. The note with it: intramuscular, 3 μg of DNA, 96 hours after injection. Details: species or system mice C57bl/6. The protocol:
Muscles samples were taken 96 hours after the injection and the level of expression for luciferase was measured using a luminometer (wallace).
Complexes containing increasing quantities of DT-3TU lipid per μg of DNA were injected in both tibial and cranial muscles of the mice, to which electric pulsations were or were not applied (Bureau, M et al, BBA 2000).
The mice C57bl/6 had undergone previously anaesthetic with a mixture of Ketamin/Xylazine. The injection was or was not followed by the application of transcutaneous electric pulsations using electrodes placed in both ends of the muscle (Bureau, M et al, BBA 2000).
96 hours after the injection, the mice underwent euthanasia, muscles samples were taken and ground in 1 ml buffer lyse solution. After centrifugation (10 min., 12000 rpm, 4° C.), supernatant (10 μl) was taken and placed in a 96 well plate to read the luciferase after adding 50 μl of luciferase substrate. The level of luminescence was read in the supernatant using a luminometer (Wallace, Victor).

The subject of data set [2] is HeLa cells. The data set can be described thus: in vitro transfection, luciferase activity. It counts as cell-based, human. The note with it: 10% FCS versus without serum. On the procedure:
This study was carried out for lipoplexes comprising various quantities of DT-3TU: 1.5 or 5 or 10 or 15 or 20 nmol of DT-3TU/μg of DNA. Each of these conditions was tested with and without fetal calf serum (“+Serum” or “−Serum”).
HeLa cells (American type Culture Collection (ATCC) Rockville, Md., USA) derived from a carcinoma of human cervical epithelium, were cultured in the presence of an MEM (“minimum essential medium”) type medium with addition of 2 mM L-glutamine, 50 units/ml of penicillin and 50 units/ml of streptomycin. The medium and the additives were from Gibco-BRL Life Technologies (Gaithersburg, Md., USA). The cells were cultured in flasks at 37° C. and at 5% carbon dioxide in an incubator.
one day before the transfection, the HeLa cells were transferred into […] with a cell number of 30,000 to 50,000 per well. These dilutions represent approximately 80% confluence after 24 hours. […]
Briefly, the transfected cells were washed twice with 500 μl of PBS (phosphate buffer) and then lysed with 250 μl of reagent (Promega cell culture lysis reagent, of the Luciferase Assay System kit). An aliquot of 10 μl of supernatant of the lysate centrifuged (12,000×g) for 5 minutes at 4° C. was measured with a Wallace Victor 2 luminometer (1420 Multilabel couter). […]

The nature of data set [3]: size of the lipid/DNA particles. To be noted: without lipid-PEG. It counts as physicochemical. An excerpt: The use of cholesterol-PEG in the DT-3TU/DPPC formulations has the advantage of permitting the reduction of the particles to such a quantity of lipid that, in the case of the absence of lipid-PEG, would lead to aggregation. […] In order to obtain particles of this size it is necessary to use at least 40 nmol of the lipid DT-3TU/μg of DNA. Thus, the use of lipid-PEG in the formulations of the lipid DT-3TU has the advantage of reducing the quantity of DT-3TU necessary to compact the DNA and form particles whose size is smaller than 500 nm

Data set [4] concerns HeLa cells. The data set can be described thus: toxicity toward the cells, protein level after transfection. To be noted: lipoplexes with 0.75 to 20 nmol of DT-3TU per μg of DNA. The class given is cell-based, human. On the procedure:
The protein level was measured after transfection. The transfection protocol was identical to that described in Example 8.
Briefly, the transfected cells were washed twice with 500 μl of PBS (phosphate buffer) and then lysed with 250 μl of reagent (Promega cell culture lysis reagent, of the Luciferase Assay System kit). An aliquot of 50 μl of supernatant of the lysate centrifuged (12,000×g) for 5 minutes at 4° C. was transferred into a tube in the presence of 50 μl of 0.1 M iodoacetamide, 0.1 M hydrochloric acid tris at pH 8.2 and left for 1 hour at 37° C. 20 μl of the preceding solutions were deposited in a 96-well plate and 200 μl of “BCA protein assay” reagent (Pierce, Montluson, France) were added. The plate was then centrifuged at 2500 revolutions/min and then incubated at 37° C. for 30 minutes. In parallel, a bovine serum albumin (BSA) range was prepared in order to correlate the absorbance value obtained for the samples with a quantity of protein present in the sample.

Each structure is given as a SMILES string.

For `CCCCCCCCCCCCCCCC(=O)OC[C@H](COP(=O)([O-])OCC[N+](C)(C)C)OC(=O)CCCCCCCCCCCCCCC` [DPPC, 1,2-dipalmitoyl-sn-glycero-3-phosphocholine], in the data set on plasmid pXL3031, the “decrease in fluorescence, lipid alone (control)” value is recorded as “about 5%”.

`CCCCCCCCCCCCCCN(CCCCCCCCCCCCCC)C(=O)CCC(=O)NCCNC(=S)NCCNC(=S)NCCNC(=S)NC` [DT-3TU, 3-(2-{3-[2-(3-{2-[3-(ditetradecylcarbamoyl)propionylamino]ethyl}thioureido)ethyl]thioureido}ethyl)-1-methylthiourea]: the “level of expression (luciferase) versus background noise of control muscle” value in data set [1] is listed as > 5.0×10^4. In addition, the “transfection of muscle tissues” value in data set [1] (20 and 40 nmol of DT-3TU lipid per μg of DNA, with or without electric pulsations) is recorded as “significant level of transfection”. The “effect of the presence of serum on transfection” value in the data set with HeLa cells [2] is “weak inhibition of transfection”. Besides, the “quantity of lipid necessary to obtain particles inferior to 500 nm” value in data set [3] is given as “at least 40 nmol of the lipid DT-3TU/μg of DNA”. For the same molecule, the “toxicity toward the cells” value in the data set on HeLa cells [4] is given as “no toxicity was observed”.

(Values after patent publication US6812218B2, “Lipid derivatives of polythiourea” (Gencell S.A., priority 2001, dated 2004).)
